From patent US4761414A, “Substituted 1H-pyrimido[1,2-a-]-pyrido[3,4-e]pyrazine 6 oxides” (G. D. Searle & Co., priority 1986, dated 1988)
≈ marks a conversion by molar mass, not a printed value. Where a name gives a salt, the structure may show the parent alone. Read-outs that look alike come from different tables or passages of the source.

Columns and labels:
B. fragilis NCTC 10581 = experiment: MIC/MBC against Bacteroides fragilis strain A (96-well microtitre plates, anaerobic chamber); format: cell-based; conditions: for MBC / MIC: Bacteroides fragilis; for MBC: NCTC10581, 99.9% reduction in viable count; for MIC: NCTC10581, 48 h
Method: (§1) The screening panel utilized in this Example consisted of 5 strains of Bacteroides fragilis. All assays were carried out in 96-well microtitre plates. If an isolate was obtained from either a culture collection or clinical source, the isolate was immediately inoculated into Wilkens-Chalgren broth (Oxoid) and incubated at 37° C. in an anaerobic chamber in an atmosphere of 85% nitrogen, 10% carbon dioxide, and 5% hydrogen for 48 hours. At the end of this time, the viable count was about 10^12 organisms/ml broth. A 1 ml aliquot of each culture was placed in an ampoule and quick frozen in acetone-dry ice mixture and stored in liquid nitrogen. When an inoculum was utilized in an assay, one of the ampoules was thawed and diluted with fresh broth to yield a suspension having a count of 5×10^5 organisms/ml. A 100 μl aliquot of this suspension was inoculated into each well of the microtitre plate. A 2 mg sample of the test compound was dissolved in 0.2 ml of a suitable solvent such as dimethylsulfoxide, polyethylene glycol 200 or methanol. […] After addition of the test solution the final inoculum level was 10^5 cells/ml. The plates were incubated for 48 hours at 37° C. in the anaerobic chamber. The Minimum Inhibitory Concentration (MIC) was read visually. The MIC is defined as the lowest concentration at which there is no detectable growth. The Minimum Bactericidal Concentration (MBC) was determined by taking 50 μl aliquot from each well and placing it in fresh medium. […] The strains of Bacteroides fragilis utilized in the above procedure are identified by letter in accordance with the following legend: |A B. fragilis NCTC 10581

B. fragilis NCTC 9343 = experiment: MIC/MBC against Bacteroides fragilis strain B; format: cell-based
Method: as §1, with “|B” for “|A”, “9343” for “10581”

[1] = test system: B. fragilis MZ-R ATCC 11295; experiment: MIC/MBC against Bacteroides fragilis strain D; format: cell-based
Method: The screening panel utilized in this Example consisted of 5 strains of Bacteroides fragilis. All assays were carried out in 96-well microtitre plates. If an isolate was obtained from either a culture collection or clinical source, the isolate was immediately inoculated into Wilkens-Chalgren broth (Oxoid) and incubated at 37° C. in an anaerobic chamber in an atmosphere of 85% nitrogen, 10% carbon dioxide, and 5% hydrogen for 48 hours. At the end of this time, the viable count was about 10^12 organisms/ml broth. A 1 ml aliquot of each culture was placed in an ampoule and quick frozen in acetone-dry ice mixture and stored in liquid nitrogen. When an inoculum was utilized in an assay, one of the ampoules was thawed and diluted with fresh broth to yield a suspension having a count of 5×10^5 organisms/ml. A 100 μl aliquot of this suspension was inoculated into each well of the microtitre plate. A 2 mg sample of the test compound was dissolved in 0.2 ml of a suitable solvent such as dimethylsulfoxide, polyethylene glycol 200 or methanol. […] After addition of the test solution the final inoculum level was 10^5 cells/ml. The plates were incubated for 48 hours at 37° C. in the anaerobic chamber. The Minimum Inhibitory Concentration (MIC) was read visually. The MIC is defined as the lowest concentration at which there is no detectable growth. The Minimum Bactericidal Concentration (MBC) was determined by taking 50 μl aliquot from each well and placing it in fresh medium.

B. fragilis NCTC 9344 = experiment: MIC/MBC against Bacteroides fragilis strain C; format: cell-based
Method: as §1, with “|C” for “|A”, “9344” for “10581”

B. fragilis WS-1 = experiment: MIC/MBC against Bacteroides fragilis strain E; format: cell-based
Method: as §1, with “|E” for “|A”, “WS-1*” for “NCTC 10581”

Peptococcous magnus = experiment: MIC vs panel of anaerobes; format: cell-based; conditions: procedures of Example 40
[2] = test system: Campylobacter fetus ss. jejuni NCTC 10842; experiment: MIC vs panel of anaerobes; format: cell-based; conditions: NCTC10842, procedures of Example 40
Peptostreptococcus = experiment: MIC vs panel of anaerobes; format: cell-based; conditions: procedures of Example 40
[3] = test system: Costridium difficile NCIB 10666; experiment: MIC vs panel of anaerobes; format: cell-based, C. difficile; conditions: procedures of Example 40
P. anaerobius = experiment: MIC vs panel of anaerobes; format: cell-based; conditions: Peptostreptococcus anaerobius, procedures of Example 40
[4] = test system: Clostridium perfringens NCTC 523; experiment: microbe, parasite or virus in culture; format: cell-based; conditions: Clostridium perfringens NCTC 523; procedures of Example 40; bishydrochloride
[5] = test system: Fusobacterium necrophorum ATCC 11295; experiment: MIC vs panel of anaerobes; format: cell-based; conditions: Fusobacterium necrophorum ATCC 11295; procedures of Example 40; bishydrochloride
[6] = test system: Clostridium perfringens NCTC 8237; experiment: microbe, parasite or virus in culture; format: cell-based; conditions: Clostridium perfringens NCTC 8237; procedures of Example 40; bishydrochloride
[7] = test system: Campylobacter fetus ss. jejuni ATCC 29428; experiment: MIC vs panel of anaerobes; format: cell-based; conditions: ATCC29428, procedures of Example 40
[8] = test system: B. melanogenicus ATCC 15032; experiment: MIC vs panel of anaerobes; format: cell-based; conditions: procedures of Example 40
B. fragilis 23745 = conditions: p.o., after infection and twice daily for 2 days; log CFU/ml liver homogenate; test compound; bishydrochloride

## CCC1(C)CN=C2C(c3ccc(C)cc3)=[N+]([O-])c3cccnc3N2C1 (stereo not shown) [Example 35, 2,3-Dihydro-2-ethyl-2-methyl-5-(4-methylphenyl)-1H-pyrimido[1,2-a]pyrido[3,2-e]pyrazine 6-oxide]
B. fragilis NCTC 10581
  MBC: < 0.8 µg/mL
B. fragilis NCTC 10581; 48 hours, 37° C., anaerobic
  MIC: < 0.8 µg/mL
B. fragilis NCTC 9343; NCTC9343, 99.9% reduction in viable count
  MBC: < 0.8 µg/mL
B. fragilis NCTC 9343; NCTC9343, 48 h, 48 hours, 37° C., anaerobic
  MIC: < 0.8 µg/mL
[1]; ATCC11295, 99.9% reduction in viable count
  MBC: < 0.8 µg/mL
[1]; ATCC11295, 48 h, 48 hours, 37° C., anaerobic
  MIC: < 0.8 µg/mL
B. fragilis NCTC 9344; NCTC9344, 99.9% reduction in viable count
  MBC: < 0.8 µg/mL
B. fragilis NCTC 9344; NCTC9344, 48 h, 48 hours, 37° C., anaerobic
  MIC: < 0.8 µg/mL
B. fragilis WS-1; WS1, 99.9% reduction in viable count
  MBC: < 0.8 µg/mL
B. fragilis WS-1; WS1, 48 h, 48 hours, 37° C., anaerobic
  MIC: < 0.8 µg/mL

## Cc1ncc([N+](=O)[O-])n1CCO [Metronidazole, metronidazole, reference compound]
B. fragilis NCTC 10581; 99.9% reduction in viable count
  MBC, strain A: 1.5 µg/mL (≈ 8.76 µM)
B. fragilis NCTC 10581; 48 hours, 37° C., anaerobic
  MIC, strain A: 1.5 µg/mL (≈ 8.76 µM)
  MIC: < 0.8 µg/mL
B. fragilis NCTC 10581
  MBC: < 0.8 µg/mL
Peptococcous magnus
  MIC: < 0.8 µg/mL
[2]
  MIC: 3.1 µg/mL (≈ 18.1 µM)
Peptostreptococcus
  MIC: 100 µg/mL (≈ 584 µM)
[3]; Clostridioides difficile, NCIB10666, C. difficile NCIB 10666, read-out: MIC
  MIC: < 0.8 µg/mL

## CC1(C)CN=C2C(c3ccccc3)=[N+]([O-])c3cccnc3N2C1 [Example 39, 2,3-dihydro-2,2-dimethyl-5-phenyl-1H-pyrimido[1,2-a]pyrido[3,2-e]pyrazine 6-oxide bishydrochloride]
P. anaerobius
  MIC: 100 µg/mL
[4]
  MIC: 1.5 µg/mL
[5]
  MIC: 1.5 µg/mL
[6]
  MIC: 6.2 µg/mL
[7]
  MIC: 50 µg/mL
[2]
  MIC: 25 µg/mL
[8]
  MIC: 100 µg/mL
[3]; C. difficile NCIB 10666, bishydrochloride
  MIC: 1.5 µg/mL
B. fragilis 23745
  DOSE GIVING 1 LOG REDUCTION: 0.7 mg/kg
  DOSE GIVING 1 LOG REDUCTION (molar): 1.8 μM/Kg
